Measurements taken from patent publication US20260022142A1, “MACROCYCLIC IMMUNOMODULATORS” (Bristol-Myers Squibb Company, priority 2022, published 2026).
Bridge positions count the residues as written; N and C are the ends. Square brackets hold non-standard residues; d marks the D form. Peptide text beside a SMILES is read from it. * marks the point of attachment. ξ: configuration not given here. Phe(3-CF3) = N[C@@H](Cc1cccc(C(F)(F)F)c1)C(=O)O; Phe(4-COOH) = N[C@@H](Cc1ccc(C(=O)O)cc1)C(=O)O; Bip = N[C@@H](Cc1ccc(-c2ccccc2)cc1)C(=O)O; Phe(4-CN) = N#Cc1ccc(C[C@H](N)C(=O)O)cc1; Phe(3-Me) = Cc1cccc(C[C@H](N)C(=O)O)c1; Phe(4-F) = N[C@@H](Cc1ccc(F)cc1)C(=O)O; NH(CH2)12COOH = O=C(O)CCCCCCCCCCCCN*; Phe(2-F) = N[C@@H](Cc1ccccc1F)C(=O)O; Val(3-OH) = CC(C)(O)[C@H](N)C(=O)O; Val(3-F) = CC(C)(F)[C@H](N)C(=O)O; 4Pal = N[C@@H](Cc1ccncc1)C(=O)O; Cha = N[C@@H](CC1CCCCC1)C(=O)O; Cit = NC(=O)NCCC[C@H](N)C(=O)O; Thr(3ξ) = CC(O)[C@H](N)C(=O)O; Carboxymethyl = O=C(O)C*; Orn = NCCC[C@H](N)C(=O)O; Aun = NCCCCCCCCCCC(=O)O; Dab = NCC[C@H](N)C(=O)O; Nva = CCC[C@H](N)C(=O)O; Dap = NC[C@H](N)C(=O)O; AEEA = NCCOCCOCC(=O)O

These molecules were tested against T1, PD-1/PD-L1 interaction (PE-labeled human PD-L1-Ig binding to Jurkat cell line over-expressing human PD-1) (Homo sapiens, UniProt Q15116) (assay: Jurkat-PD-1 Cell Binding High-Content Screening Assay (CBA)). Details: Jurkat cell line over-expressing human PD-1; PE-labeled PD-L1-Ig 20 nM final; read-out: Jurkat hPD1-PDL1 IC50.
T1 construct: expressed in transfected cells; host or cells: Jurkat
T1 sequence (Q15116 25-288): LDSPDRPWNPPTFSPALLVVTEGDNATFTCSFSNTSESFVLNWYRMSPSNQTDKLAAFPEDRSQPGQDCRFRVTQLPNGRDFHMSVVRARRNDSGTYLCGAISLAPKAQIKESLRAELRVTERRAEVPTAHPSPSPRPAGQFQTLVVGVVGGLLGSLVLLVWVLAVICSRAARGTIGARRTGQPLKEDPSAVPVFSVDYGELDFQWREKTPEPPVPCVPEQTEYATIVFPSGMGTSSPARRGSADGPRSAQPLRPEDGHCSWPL
Format: cell-based
In short: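 Read-out is high-content imaging of cell-bound phycoerythrin-tagged PD-L1-Ig on fixed, Hoechst-counterstained Jurkat cells that over-express human PD-1. Compound exposure lasts 2 h at 37° C before the labeled ligand (20 nM final) is added for a further hour.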

Structure (SMILES)	IC50
Cc1cccc(C[C@@H]2NC(=O)[C@H](CC(=O)O)NC(=O)[C@H](Cc3ccc(OCC(=O)O)cc3)NC(=O)[C@H](CN)NC(=O)CSC[C@@H](C(=O)N[C@@H](CCCCN)C(=O)NCCCCCCCCCCC(=O)O)NC(=O)[C@H](CN)NC(=O)[C@H](C(C)C)NC(=O)[C@H](CC3CCCCC3)NC(=O)[C@H](CCN)NC(=O)[C@@H](CC(C)C)NC(=O)[C@H](CCCN)NC(=O)[C@H](CCCNC(N)=O)NC(=O)[C@H](Cc3ccc(-c4ccccc4)cc3)NC(=O)[C@H](C(C)C)NC2=O)c1 [Compound 2637] ({CH2CO}-[Dap]Y(Carboxymethyl)D[Phe(3-Me)]V[Bip][Cit][Orn][dL][Dab][Cha]V[Dap]CK[Aun]-OH; thioether N-14)	15.5 nM
Cc1cccc(C[C@@H]2NC(=O)[C@H](CC(=O)O)NC(=O)[C@H](Cc3ccc(OCC(=O)O)cc3)NC(=O)[C@H](CN)NC(=O)CSC[C@@H](C(=O)N[C@@H](CCN)C(=O)NCCOCCOCC(=O)NCCCCCCCCCCC(=O)O)NC(=O)[C@H](CCCN)NC(=O)[C@H](C(C)C)NC(=O)[C@H](CC3CCCCC3)NC(=O)[C@H](CCN)NC(=O)[C@@H](CC(C)C)NC(=O)[C@H](CCCN)NC(=O)[C@H](Cc3ccc(OCC(=O)O)cc3)NC(=O)[C@H](Cc3ccc(-c4ccccc4)cc3)NC(=O)[C@H](C(C)C)NC2=O)c1 [Compound 2061] ({CH2CO}-[Dap]Y(Carboxymethyl)D[Phe(3-Me)]V[Bip]Y(Carboxymethyl)[Orn][dL][Dab][Cha]V[Orn]C[Dab][AEEA][Aun]-OH; thioether N-14)	3.9 nM
Cc1cccc(C[C@@H]2NC(=O)[C@H](CC(=O)O)NC(=O)[C@H](Cc3ccc(OCC(=O)O)cc3)NC(=O)[C@H](Cc3ccc(F)cc3)NC(=O)CSC[C@@H](C(=O)N[C@@H](CCN)C(=O)NCCCCCCCCCCC(=O)O)NC(=O)[C@H](CO)NC(=O)[C@H](C(C)(C)O)NC(=O)[C@H](CC3CCCCC3)NC(=O)[C@H](CCN)NC(=O)[C@@H](CC(C)C)NC(=O)[C@H](CCCN)NC(=O)[C@H](Cc3ccc(OCC(=O)O)cc3)NC(=O)[C@H](Cc3ccc(-c4ccccc4)cc3)NC(=O)[C@H](Cc3ccc(OCC(=O)O)cc3)NC2=O)c1 [Compound 2216] ({CH2CO}-[Phe(4-F)]Y(Carboxymethyl)D[Phe(3-Me)]Y(Carboxymethyl)[Bip]Y(Carboxymethyl)[Orn][dL][Dab][Cha][Val(3-OH)]SC[Dab][Aun]-OH; thioether N-14)	36.7 nM
CCC[C@@H]1NC(=O)CSC[C@@H](C(=O)N[C@@H](CCN)C(=O)NCCCCCCCCCCCCC(=O)O)NC(=O)[C@H](CO)NC(=O)[C@H](C(C)(C)O)NC(=O)[C@H](CC2CCCCC2)NC(=O)[C@H](CCN)NC(=O)[C@@H](CC(C)C)NC(=O)[C@H](CCCN)NC(=O)[C@H](Cc2ccc(OCC(=O)O)cc2)NC(=O)[C@H](Cc2ccc(-c3ccccc3)cc2)NC(=O)[C@H](Cc2ccc(OCC(=O)O)cc2)NC(=O)[C@H](Cc2cccc(C(F)(F)F)c2)NC(=O)[C@H](CC(=O)O)NC(=O)[C@H](Cc2ccc(C(=O)O)cc2)NC1=O [Compound 2903] ({CH2CO}-[Nva][Phe(4-COOH)]D[Phe(3-CF3)]Y(Carboxymethyl)[Bip]Y(Carboxymethyl)[Orn][dL][Dab][Cha][Val(3-OH)]SC[Dab]-{NH(CH2)12COOH}; thioether N-14)	27.7 nM
Cc1cccc(C[C@@H]2NC(=O)[C@H](CC(=O)O)NC(=O)[C@H](Cc3ccc(OCC(=O)O)cc3)NC(=O)[C@H](CCCNC(=N)N)NC(=O)CSC[C@@H](C(=O)NCCOCCOCC(=O)NCCCCCCCCCCC(=O)O)NC(=O)[C@H](C(C)O)NC(=O)[C@H](C(C)C)NC(=O)[C@H](CC3CCCCC3)NC(=O)[C@H](CCN)NC(=O)[C@@H](CC(C)C)NC(=O)[C@H](CCCNC(N)=O)NC(=O)[C@H](Cc3ccc(OCC(=O)O)cc3)NC(=O)[C@H](Cc3ccc(-c4ccccc4)cc3)NC(=O)[C@H](C(C)C)NC2=O)c1 (stereo partly drawn) [Compound 3480] ({CH2CO}-RY(Carboxymethyl)D[Phe(3-Me)]V[Bip]Y(Carboxymethyl)[Cit][dL][Dab][Cha]V[Thr(3ξ)]C[AEEA][Aun]-OH; thioether N-14)	17.5 nM
CC(C)C[C@H]1NC(=O)[C@H](Cc2cnc[nH]2)NC(=O)[C@H](Cc2ccc(C(=O)O)cc2)NC(=O)[C@H](Cc2ccc(-c3ccccc3)cc2)NC(=O)[C@H](Cc2ccc(C(=O)O)cc2)NC(=O)[C@H](Cc2cccc(C(F)(F)F)c2)NC(=O)[C@H](CC(=O)O)NC(=O)[C@H](Cc2ccc(C(=O)O)cc2)NC(=O)[C@H](C(C)O)NC(=O)CSC[C@@H](C(=O)N[C@@H](CCN)C(=O)NCCOCCOCC(=O)NCCCCCCCCCCCCC(=O)O)NC(=O)[C@H](CC(=O)O)NC(=O)[C@H](C(C)C)NC(=O)[C@H](CC2CCCCC2)NC(=O)[C@H](CCN)NC1=O (stereo partly drawn) [Compound 3867] ({CH2CO}-[Thr(3ξ)][Phe(4-COOH)]D[Phe(3-CF3)][Phe(4-COOH)][Bip][Phe(4-COOH)]H[dL][Dab][Cha]VDC[Dab][AEEA]-{NH(CH2)12COOH}; thioether N-14)	48.1 nM
Cc1cccc(C[C@@H]2NC(=O)[C@H](CC(=O)O)NC(=O)[C@H](Cc3ccc(C#N)cc3)NC(=O)[C@H](C(C)O)NC(=O)CSC[C@@H](C(=O)N[C@@H](CCN)C(=O)NCCOCCOCC(=O)NCCOCCOCC(=O)NCCCCCCCCCCC(=O)O)NC(=O)[C@H](Cc3cnc[nH]3)NC(=O)[C@H](C(C)(C)O)NC(=O)[C@H](CC3CCCCC3)NC(=O)[C@H](CCN)NC(=O)[C@@H](CC(C)C)NC(=O)[C@H](CCCN)NC(=O)[C@H](Cc3ccc(OCC(=O)O)cc3)NC(=O)[C@H](Cc3ccc(-c4ccccc4)cc3)NC(=O)[C@H](Cc3ccc(OCC(=O)O)cc3)NC2=O)c1 (stereo partly drawn) [Compound 3773] ({CH2CO}-[Thr(3ξ)][Phe(4-CN)]D[Phe(3-Me)]Y(Carboxymethyl)[Bip]Y(Carboxymethyl)[Orn][dL][Dab][Cha][Val(3-OH)]HC[Dab][AEEA][AEEA][Aun]-OH; thioether N-14)	1 nM

The remaining lines, values ahead:

IC50	Structure (SMILES)
4.9 nM	Cc1cccc(C[C@@H]2NC(=O)[C@H](CC(=O)O)NC(=O)[C@H](Cc3ccc(OCC(=O)O)cc3)NC(=O)[C@H](CCN)NC(=O)CSC[C@@H](C(=O)N[C@@H](CCCCN)C(=O)NCCCCCCCCCCC(=O)O)NC(=O)[C@H](CCCCN)NC(=O)[C@H](C(C)O)NC(=O)[C@H](CC3CCCCC3)NC(=O)[C@H](CCN)NC(=O)[C@@H](CC(C)C)NC(=O)[C@H](CCCN)NC(=O)[C@H](Cc3ccc(O)cc3)NC(=O)[C@H](Cc3ccc(-c4ccccc4)cc3)NC(=O)[C@H](C(C)C)NC2=O)c1 (stereo partly drawn) [Compound 3599] ({CH2CO}-[Dab]Y(Carboxymethyl)D[Phe(3-Me)]V[Bip]Y[Orn][dL][Dab][Cha][Thr(3ξ)]KCK[Aun]-OH; thioether N-14)
38.1 nM	Cc1cccc(C[C@@H]2NC(=O)[C@H](CC(=O)O)NC(=O)[C@H](Cc3ccc(OCC(=O)O)cc3)NC(=O)[C@H](CN)NC(=O)CSC[C@@H](C(=O)N[C@@H](CCN)C(=O)NCCCCCCCCCCC(=O)O)NC(=O)[C@H](Cc3ccc(OCC(=O)O)cc3)NC(=O)[C@H](C(C)C)NC(=O)[C@H](CC(C)C)NC(=O)[C@H](CCN)NC(=O)[C@@H](CC(C)C)NC(=O)[C@H](CCCN)NC(=O)[C@H](Cc3ccc(O)cc3)NC(=O)[C@H](Cc3ccc(-c4ccccc4)cc3)NC(=O)[C@H](C(C)C)NC2=O)c1 [Compound 2760] ({CH2CO}-[Dap]Y(Carboxymethyl)D[Phe(3-Me)]V[Bip]Y[Orn][dL][Dab]LVY(Carboxymethyl)C[Dab][Aun]-OH; thioether N-14)
35.7 nM	Cc1cccc(C[C@@H]2NC(=O)[C@H](CC(=O)O)NC(=O)[C@H](Cc3ccc(OCC(=O)O)cc3)NC(=O)[C@H](CCCNC(=N)N)NC(=O)CSC[C@@H](C(=O)N[C@@H](CCN)C(=O)NCCCCCCCCCCC(=O)O)NC(=O)[C@H]([C@@H](C)O)NC(=O)[C@H](C(C)(C)F)NC(=O)[C@H](CC3CCCCC3)NC(=O)[C@H](CCN)NC(=O)[C@@H](CC(C)C)NC(=O)[C@H](CCCN)NC(=O)[C@H](Cc3ccc(O)cc3)NC(=O)[C@H](Cc3ccc(-c4ccccc4)cc3)NC(=O)[C@H](Cc3ccc(O)cc3)NC2=O)c1 [Compound 2126] ({CH2CO}-RY(Carboxymethyl)D[Phe(3-Me)]Y[Bip]Y[Orn][dL][Dab][Cha][Val(3-F)]TC[Dab][Aun]-OH; thioether N-14)
10.3 nM	Cc1cccc(C[C@@H]2NC(=O)[C@H](CC(=O)O)NC(=O)[C@H](Cc3ccc(OCC(=O)O)cc3)NC(=O)[C@H](Cc3ccncc3)NC(=O)CSC[C@@H](C(=O)N[C@@H](CCN)C(=O)NCCCCCCCCCCC(=O)O)NC(=O)[C@H](CO)NC(=O)[C@H](C(C)(C)O)NC(=O)[C@H](CC3CCCCC3)NC(=O)[C@H](CCN)NC(=O)[C@@H](CC(C)C)NC(=O)[C@H](CCCN)NC(=O)[C@H](Cc3ccc(OCC(=O)O)cc3)NC(=O)[C@H](Cc3ccc(-c4ccccc4)cc3)NC(=O)[C@H](Cc3ccccc3F)NC2=O)c1 [Compound 2184] ({CH2CO}-[4Pal]Y(Carboxymethyl)D[Phe(3-Me)][Phe(2-F)][Bip]Y(Carboxymethyl)[Orn][dL][Dab][Cha][Val(3-OH)]SC[Dab][Aun]-OH; thioether N-14)
54.3 nM	CC(C)C[C@H]1NC(=O)[C@H](CCCN)NC(=O)[C@H](Cc2ccc(O)cc2)NC(=O)[C@H](Cc2ccc(-c3ccccc3)cc2)NC(=O)[C@H](C(C)C)NC(=O)[C@H](Cc2c[nH]c3ccccc23)NC(=O)[C@H](CC(=O)O)NC(=O)[C@H](Cc2ccc(OCC(=O)O)cc2)NC(=O)[C@H](Cc2ccncc2)NC(=O)CSC[C@@H](C(=O)N[C@@H](CCN)C(=O)NCCCCCCCCCCC(=O)O)NC(=O)[C@H]([C@@H](C)O)NC(=O)[C@H](C(C)C)NC(=O)[C@H](CC2CCCCC2)NC(=O)[C@H](CCN)NC1=O [Compound 2741] ({CH2CO}-[4Pal]Y(Carboxymethyl)DWV[Bip]Y[Orn][dL][Dab][Cha]VTC[Dab][Aun]-OH; thioether N-14)
